# pKi: −log10 of the molar value. Where a name gives a salt, the structure may show the parent alone.
# Target: T1, Recombinant human M3 receptor (Homo sapiens, UniProt P20309)
# T1 construct: expressed in transfected cells; host or cells: CHO-K1 cells (membranes)
# Assay: biochemical
# Type: binding
# Conditions: SPA format; read-out: M3 Ki (SPA format)
# Protocol: Recombinant human M3 receptor was expressed in CHO-K1 cells. Cell membranes were prepared and binding of [3H]-N-methyl scopolamine ([3H]-NMS) and compounds was assessed by a scintillation proximity assay (SPA). The incubation time was 16 hours at room temperature in the presence of 1% (v/v) DMSO. The assay was performed in white 96 well clear-bottomed NBS plates (Corning). Prior to the assay, the CHO cell membranes containing M3 receptor were coated onto SPA WGA (Wheat germ agglutinin) beads (GE Healthcare). Non specific binding was determined in the presence of 1 μM Atropine.
# Radioactivity was measured on a Microbeta scintillation counter (PerkinElmer) using a 3H protocol with a 2 minutes per well read time. […] Concentration dependent inhibition of [3H]-NMS binding by compounds was expressed as pIC50.
# T1 sequence (P20309 whole entry): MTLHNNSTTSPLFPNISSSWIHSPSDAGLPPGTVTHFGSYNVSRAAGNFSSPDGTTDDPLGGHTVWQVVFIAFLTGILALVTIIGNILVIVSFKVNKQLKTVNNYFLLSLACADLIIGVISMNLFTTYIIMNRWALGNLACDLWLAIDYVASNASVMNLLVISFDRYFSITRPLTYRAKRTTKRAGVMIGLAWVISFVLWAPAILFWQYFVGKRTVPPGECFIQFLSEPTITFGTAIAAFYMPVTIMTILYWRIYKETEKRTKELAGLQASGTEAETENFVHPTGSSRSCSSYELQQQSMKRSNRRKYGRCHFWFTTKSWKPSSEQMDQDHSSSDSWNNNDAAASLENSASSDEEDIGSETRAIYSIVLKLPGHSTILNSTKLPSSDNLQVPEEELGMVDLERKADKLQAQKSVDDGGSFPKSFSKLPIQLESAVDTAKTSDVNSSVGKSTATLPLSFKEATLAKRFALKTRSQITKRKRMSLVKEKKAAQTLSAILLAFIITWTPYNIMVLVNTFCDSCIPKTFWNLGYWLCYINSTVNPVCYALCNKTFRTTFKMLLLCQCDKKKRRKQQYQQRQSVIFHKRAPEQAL
row,SMILES,pKi
1,"N#Cc1ccc(CO[C@H]2C[N+]3(Cc4cnc([C@](O)(c5ccccc5)C5CCCCC5)o4)CCC2CC3)cc1 [Example 21, (R)-3-(4-cyano-benzyloxy)-1-[2-((R)-cyclohexyl-hydroxy-phenyl-methyl)-oxazol-5-ylmethyl]-1-azonia-bicyclo[2.2.2]octane; formate]",> 8.30
2,"O[C@](c1ccccc1)(c1ncc(C[N+]23CCC(CC2)[C@@H](OCc2ccc(Cl)c(Cl)c2)C3)o1)C1CCCCC1 [Example 22, (R)-1-[2-((R)-cyclohexyl-hydroxy-phenyl-methyl)-oxazol-5-ylmethyl]-3-(3,4-dichloro-benzyloxy)-1-azonia-bicyclo[2.2.2]octane; formate]",> 8.30
3,"O[C@](c1ccccc1)(c1ncc(C[N+]23CCC(CC2)[C@@H](OCc2ccc(Cl)cc2)C3)o1)C1CCCCC1 [Example 23, (R)-3-(4-Chloro-benzyloxy)-1-[2-((R)-cyclohexyl-hydroxy-phenyl-methyl)-oxazol-5-ylmethyl]-1-azonia-bicyclo[2.2.2]octane; bromide]",> 8.30
4,"O[C@](c1ccccc1)(c1ncc(C[N+]23CCC(CC2)[C@H](COc2ccccc2)C3)o1)C1CCCCC1 [Example 24, (S)-1-[2-((R)—Cyclohexyl-hydroxy-phenyl-methyl)-oxazol-5-ylmethyl]-3-phenoxymethyl-1-azonia-bicyclo[2.2.2]octane; bromide]",> 8.30
5,"OC(c1ccccc1)(c1ccccc1)c1ncc(C[N+]23CCC(CC2)[C@@H](COc2ccccc2)C3)o1 [Example 26, (R)-1-[2-(Hydroxy-diphenyl-methyl)-oxazol-5-ylmethyl]-3-phenoxymethyl-1-azonia-bicyclo[2.2.2]octane; bromide]",> 8.30
6,"OC(c1ccccc1)(c1ccccc1)c1ncc(C[N+]23CCC(CC2)[C@@H](OCc2ccccc2)C3)o1 [Example 27, (R)-3-Benzyloxy-1-[2-(hydroxy-diphenyl-methyl)-oxazol-5-ylmethyl]-1-azonia-bicyclo[2.2.2]octane; bromide]",> 8.30
7,"OC(c1ccccc1)(c1ccccc1)c1ncc(C[N+]23CCC(CC2)[C@@H](OCc2ccc(Cl)cc2)C3)o1 [Example 28, (R)-3-(4-Chloro-benzyloxy-1-[2-(hydroxy-diphenyl-methyl)-oxazol-5-ylmethyl]-1-azonia-bicyclo[2.2.2]octane; bromide]",7.70 to 8.30
8,"OC(c1ccccc1)(c1ncc(C[N+]23CCC(CC2)[C@@H](OCc2ccccc2)C3)s1)C1CCCCC1 (stereo partly drawn) [Example 29, (R)-3-Benzyloxy-1-[2-(cyclohexyl-hydroxy-phenyl-methyl)-thiazol-5-ylmethyl]-1-azonia-bicyclo[2.2.2]octane; bromide]",> 8.30
9,"O[C@](c1ccccc1)(c1ncc(C[N+]23CCC(CC2)[C@@H](OCc2ccc(F)cc2)C3)o1)C1CCCCC1 [Example 32, (R)-1-[2-((R)—Cyclohexyl-hydroxy-phenyl-methyl)-oxazol-5-ylmethyl]-3-(4-fluoro-benzyloxy)-1-azonia-bicyclo[2.2.2]octane; bromide]",> 8.30
10,"O[C@](c1ccccc1)(c1ncc(C[N+]23CCC(CC2)[C@@H](OCc2ccc(C(F)(F)F)cc2)C3)o1)C1CCCCC1 [Example 33, (R)-1-[2-((R)—Cyclohexyl-hydroxy-phenyl-methyl)-oxazol-5-ylmethyl]-3-(4-trifluoromethyl-benzyloxy)-1-azonia-bicyclo[2.2.2]octane; bromide]",> 8.30
11,"Cc1ccc(CO[C@H]2C[N+]3(Cc4cnc([C@](O)(c5ccccc5)C5CCCCC5)o4)CCC2CC3)cc1 [Example 34, (R)-1-[2-((R)—Cyclohexyl-hydroxy-phenyl-methyl)-oxazol-5-ylmethyl]-3-(4-methyl-benzyloxy)-1-azonia-bicyclo[2.2.2]octane; bromide]",> 8.30
12,"O[C@](c1ccccc1)(c1ncc(C[N+]23CCC(CC2)[C@@H](OCc2cccc(F)c2)C3)o1)C1CCCCC1 [Example 35, (R)-1-[2-((R)-cyclohexyl-hydroxy-phenyl-methyl)-oxazol-5-ylmethyl]-3-(3-fluoro-benzyloxy)-1-azonia-bicyclo[2.2.2]octane; formate]",> 8.30

# — US20100056565A1, “Heterocyclic Derivatives as M3 Muscarinic Receptors” (priority 2007, published 2010)
